From US12697290B2, “Cosmetic compounds having two linked maleimide groups, cosmetic preparations, and method for treatment of keratin materials” (TARA BRANDS EUROPE S.L.U., priority 2022, dated 2026) come the findings set out here.

A short description of this assay: Thiol recombination: reaction of test compound with cysteine reagent, conversion into mono- and bis-Michael-addition products monitored by LC-MS. To be noted: 30° C.; for Conversion at 15 min, bis-Michael-addition product (bis) / Conversion at 15 min, mono-Michael-addition product (mono) / Conversion at 30 min, bis-Michael-addition product (bis) / Conversion at 30 min, mono-Michael-addition product (mono) / Conversion at 60 min, bis-Michael-addition product (bis) / Conversion at 60 min, mono-Michael-addition product (mono): test solution 1 (pH=5.4), 0.05M. The text has this:
N-Fmoc-cysteine (hereinafter C1) or N-Cbz-cysteine (hereinafter C2) were obtained by reduction of their cysteine counterparts via a literature known method. Adv. Syn. Catal., 2020, 362, 5093-5104. DOI: 10.1002/adsc.202000716. “OLAPLEX® No. 0 Intensive Bond Building Hair Treatment” is a commercially available product which comprises an active agent, water, phenoxyethanol and sodium benzoate. The active agent is hereinafter labelled “Olaplex active agent” or “reference compound #2”.
The compound to be tested (1 eq.) was dissolved in an aqueous media (0.02-0.05 M) and 4 eq. of cysteine reagent (N-Fmoc-cysteine (C1) or N-Cbz-cysteine (C2)) were added. Two test solutions were used as aqueous media: test solution 1 was a phosphate buffer (pH=5.4) with or without an emulsifier (e.g. Eumulgin) and test solution 2 was an aqueous solution containing 0.49% (w/w) sodium benzoate and 0.30% (w/w) citric acid with or without an emulsifier (e.g. Eumulgin).
To make the phosphate buffer a solution of 0.1-M solution of citric acid (use citric acid monohydrate) and a 0.2-M solution of Na2HPO4 (use Na2HPO4 or Na2HPO4*2H2O) were prepared and mixed with the following ratio: 44.25 mL/55.75 mL=mL 0.1M-citric acid/mL 0.2M Na2HPO4 to give a buffer solution with pH=5.4.
The tests were performed at ambient temperature of 30° C. under stirring with small magnetic stirrers in LC-MS vials or small glass vials (see picture 1). The reactions were performed under normal atmosphere. The reactions were monitored by LC-MS. The reaction scale was between 4 and 10 mg of tested compound. To calculate the conversion into products the ratio between cysteine reagent, mono-Michael-addition product (mono) and bis-Michael-addition product (bis) as shown in the following schemes were compared.

Setting [1] is: test solution 1 (pH=5.4)+1% eumulgin, 0.02M.
[2] abbreviates: test solution 1 (pH=5.4)+1% eumulgin, 0.02M, 60 min.
Where [3] appears, read: test solution 1 (pH=5.4)+2.5% eumulgin, 0.02M.
[4] abbreviates: test solution 1 (pH=5.4)+2.5% eumulgin, 0.02M, 60 min.
Where [5] appears, read: test solution 2+1% Eumulgin, 0.02M.
Where [6] appears, read: test solution 2+1% Eumulgin, 0.02M, 60 min.

For `O=C1C=CC(=O)N1CCOCC12CC(COCCN3C(=O)C=CC3=O)(C1)C2` [SPC-TB-0002, 1,1′-(((bicyclo[1.1.1]pentane-1,3-diylbis(methylene))bis(oxy))bis(ethane-2,1-diyl))bis(1H-pyrrole-2,5-dione)], the “Conversion at 15 min, bis-Michael-addition product (bis)” value (“Conversion at 15 min … (bis)” below) worked out at 17% bis; the “Conversion at 15 min, mono-Michael-addition product (mono)” value (from here on “Conversion at 15 min … (mono)”) worked out at 0% mono; the “Conversion at 30 min, bis-Michael-addition product (bis)” value (“Conversion at 30 min … (bis)” below) is listed as 11% bis; the “Conversion at 30 min, mono-Michael-addition product (mono)” value (from here on “Conversion at 30 min … (mono)”) is 0% mono. Moreover, under “60 min”, the “Conversion at 60 min, bis-Michael-addition product (bis)” value (“Conversion at 60 min … (bis)” below) came out at 10% bis and the “Conversion at 60 min, mono-Michael-addition product (mono)” value (shortened to “Conversion at 60 min … (mono)”) came out at 0% mono.
For the molecule `O=C1C=CC(=O)N1CCOCCOCCOCC12CC(COCCOCCOCCN3C(=O)C=CC3=O)(C1)C2` [SPC-TB-0013], under setting [1], the “Conversion at 30 min, bis” value amounted to 67% bis and the “Conversion at 30 min, mono” value is 16% mono. In addition, under setting [2], the “Conversion at 60 min, bis” value is given as 66% bis and the “Conversion at 60 min, mono” value worked out at 15% mono. In addition, under setting [3], the “Conversion at 30 min, bis” value turned out to be 57% bis and the “Conversion at 5 h, bis” value is reported as 46% bis. Besides, the “Conversion at 60 min, bis” value under setting [4] came to 57% bis. Further, under setting [5], the “Conversion at 30 min, bis” value was 36% bis and the “Conversion at 30 min, mono” value came out at 10% mono. In addition, where the note is “test solution 2+1% Eumulgin, 0.02M, 60 min, mono and bis together, peaks are not separated in LC-MS”, the “Conversion at 60 min, mono and bis” value was 50% mono and bis*.
In the case of `O=C1C=CC(=O)N1CCCOCC12CCC(COCCCN3C(=O)C=CC3=O)(CC1)CC2` [SPC-TB-0003], the “Conversion at 15 min … (bis)” value came to 29% bis; the “Conversion at 15 min … (mono)” value came to 9% mono; the “Conversion at 30 min … (bis)” value turned out to be 77% bis; the “Conversion at 30 min … (mono)” value came out at 10% mono.
On to `O=C1C=CC(=O)N1CCOCCOCC12CC(COCCOCCN3C(=O)C=CC3=O)(C1)C2` [SPC-TB-0007, 1,1′-(((((bicyclo[1.1.1]pentane-1,3-diylbis(methylene))bis(oxy))bis(ethane-2,1-diyl))bis(oxy))bis(ethane-2,1-diyl))bis(1H-pyrrole-2,5-dione)], for which the “Conversion at 15 min … (bis)” value was 24% bis; the “Conversion at 15 min … (mono)” value amounted to 47% mono; the “Conversion at 30 min … (bis)” value came out at 22% bis; the “Conversion at 30 min … (mono)” value was 66% mono. In addition, under setting [1], the “Conversion at 30 min, bis” value worked out at 53% bis and the “Conversion at 30 min, mono” value is reported as 20% mono. Moreover, under setting [2], the “Conversion at 60 min, bis” value is on record as 67% bis and the “Conversion at 60 min, mono” value is on record as 9% mono. Under setting [3], the “Conversion at 30 min, bis” value was determined as 79% bis and the “Conversion at 5 h, bis” value is 73% bis. For the same molecule, the “Conversion at 60 min, bis” value under setting [4] is 79% bis. In addition, where the note is “60 min”, the “Conversion at 60 min … (bis)” value came to 50% bis and the “Conversion at 60 min … (mono)” value amounted to 37% mono. Further, under setting [5], the “Conversion at 30 min, bis” value came out at 26% bis and the “Conversion at 30 min, mono” value came to 26% mono. Further, under setting [6], the “Conversion at 60 min, bis” value is 44% bis and the “Conversion at 60 min, mono” value is given as 10% mono.
On to `O=C1C=CC(=O)N1CCCOCCOCCOCCCN1C(=O)C=CC1=O` [Reference compound #1, reference compound], for which the “Conversion at 15 min … (bis)” value was found to be 9% bis; the “Conversion at 15 min … (mono)” value came to 0% mono; the “Conversion at 30 min … (bis)” value came to 10% bis; the “Conversion at 30 min … (mono)” value is on record as 0% mono. Under setting [1], the “Conversion at 30 min, bis” value came out at 50% bis and the “Conversion at 30 min, mono” value was determined as 0% mono. Moreover, under setting [2], the “Conversion at 60 min, bis” value came out at 60% bis and the “Conversion at 60 min, mono” value was 0% mono. Moreover, under setting [3], the “Conversion at 30 min, bis” value worked out at 97% bis and the “Conversion at 5 h, bis” value came out at 82% bis. Also, the “Conversion at 60 min, bis” value under setting [4] is given as 88% bis. Further, where the note is “60 min”, the “Conversion at 60 min … (bis)” value was 22% bis and the “Conversion at 60 min … (mono)” value was found to be 29% mono. Under setting [5], the “Conversion at 30 min, bis” value worked out at 30% bis and the “Conversion at 30 min, mono” value is on record as 30% mono. For the same molecule, under setting [6], the “Conversion at 60 min, bis” value is on record as 56% bis and the “Conversion at 60 min, mono” value came to 9% mono.
For `O=C1C=CC(=O)N1CCCOCC12CC(COCCCN3C(=O)C=CC3=O)(C1)C2` [SPC-TB-0001], the “Conversion at 15 min … (bis)” value is 15% bis; the “Conversion at 15 min … (mono)” value stood at 0% mono; the “Conversion at 30 min … (bis)” value was 28% bis; the “Conversion at 30 min … (mono)” value is 0% mono. Under “60 min”, the “Conversion at 60 min … (bis)” value stood at 21% bis and the “Conversion at 60 min … (mono)” value is given as 0% mono.
